Measured values published in PubChem BioAssay (NCI).
“And” between values parts separate entries of the source, which are not always exact repeats. Equal values may be shown once.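 Values below derive from 48-hour exposures of cells grown in 96-well plates, with endpoints linearly interpolated between the two concentrations bracketing the appropriate inhibition level. At the GI50, growth is halved. TGI denotes the concentration required for complete inhibition of growth.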

Assays:
Assay in all cases: inhibition of tumour cell growth, NCI panel, 48 h
COLO 205 colon = system: COLO 205 colon
DU-145 prostate = system: DU-145 prostate
HOP-92 NSCLC = system: HOP-92 NSCLC
HS 578T breast = system: HS 578T breast
HT29 colon = system: HT29 colon
MDA-MB-231 breast = system: MDA-MB-231 breast
NCI-H460 lung = system: NCI-H460 lung
SF-295 CNS = system: SF-295 CNS
SK-OV-3 ovarian = system: SK-OV-3 ovarian
UACC-257 melanoma = system: UACC-257 melanoma

| SMILES | GI50 (COLO 205 colon) | TGI (COLO 205 colon) | GI50 (DU-145 prostate) | TGI (DU-145 prostate) | GI50 (HOP-92 NSCLC) | TGI (HOP-92 NSCLC) | GI50 (HS 578T breast) | TGI (HS 578T breast) | GI50 (HT29 colon) | TGI (HT29 colon) | GI50 (MDA-MB-231 breast) | TGI (MDA-MB-231 breast) | GI50 (NCI-H460 lung) | TGI (NCI-H460 lung) | GI50 (SF-295 CNS) | TGI (SF-295 CNS) | GI50 (SK-OV-3 ovarian) | TGI (SK-OV-3 ovarian) | GI50 (UACC-257 melanoma) | TGI (UACC-257 melanoma) |
| --- | --- | --- | --- | --- | --- | --- | --- | --- | --- | --- | --- | --- | --- | --- | --- | --- | --- | --- | --- | --- |
| O=C(/C(=C/c1ccc([N+](=O)[O-])cc1)SCc1ccc(F)cc1)c1ccc(Cl)cc1 | 6.46 µM | 28.5 µM | 38.6 µM | > 100 µM | 19.2 µM | > 100 µM | 3 µM | 9.32 µM | 2.38 µM | 6.2 µM | 4.37 µM | 23 µM | 19 µM | > 100 µM | 7.09 µM | 25.1 µM | 37.1 µM | > 100 µM | 16 µM | 34.2 µM |
| S=C(N/N=C(/c1ccccc1)c1ccccn1)N1CCCCCC1 | < 0.001 µM | – | 1.03 µM | 2.19 µM and 2.15 µM | – | 1.97 µM | 1.54 µM | 7.58 µM and 7.59 µM | 0.00724 µM | 3.41 µM and 1.8 µM | < 0.001 µM | 1.87 µM and 1.83 µM | 0.00355 µM | 1.58 µM and 1.89 µM | 0.564 µM | 2.08 µM and 1.51 µM | 0.00173 µM | 2.5 µM and 1.31 µM | – | 0.709 µM |
| CNC(=O)Oc1cc(C)c(/C=C/c2cncc(C(=O)NC)c2)c(C)c1 | > 25 µM | > 25 µM | > 25 µM | > 25 µM | 9.13 µM | > 25 µM | 12.9 µM | > 25 µM | > 25 µM | > 25 µM | > 25 µM | > 25 µM | > 25 µM | > 25 µM | > 25 µM | > 25 µM | > 25 µM | > 25 µM | 24.7 µM | > 25 µM |
| O=C(NN=C1CCCCC1)c1[nH]c2ccc(F)cc2c1-c1ccccc1 | 41.6 µM | > 100 µM | 92.2 µM | > 100 µM | 50.9 µM | > 100 µM | 48.3 µM | > 100 µM | 20.9 µM | 46.5 µM | 49 µM | > 100 µM | 22 µM | 50.8 µM | 33.6 µM | > 100 µM | 35.1 µM | > 100 µM | 59.1 µM | > 100 µM |
| C[C@H](CCCNCCCNCCCN)[C@H]1CC[C@H]2[C@@H]3[C@H](OCCCN)C[C@H]4C[C@H](OCCCN)CC[C@]4(C)[C@H]3C[C@H](OCCCN)[C@]12C | 1.1 µM | 15.3 µM | 3.34 µM | 21.3 µM | 0.584 µM | 11.9 µM | 0.918 µM | 12.5 µM | 0.821 µM | 13.8 µM | 0.652 µM | 18.8 µM | 4.72 µM | > 34.7 µM | 1.33 µM | 23.9 µM | 35.7 µM | > 100 µM | 9.63 µM | 59.5 µM |
| S=c1nc(Cl)cc2[nH]c(Cl)cn12 | – | 8.08 µM | – | > 100 µM | – | 96.9 µM | – | 6.34 µM | – | 75.3 µM | – | 43.9 µM | – | > 100 µM | – | 14.4 µM | – | 8.4 µM | – | > 100 µM |
| N#CS.N=C=S.N=C=S.[Cu+2].[NH2-].[NH2-].[NH2-].[NH2-].c1ccc2ncccc2c1 | > 100 µM | > 100 µM | 17.3 µM | 36.1 µM | > 100 µM | > 100 µM | 29.4 µM | > 100 µM | 60.7 µM | > 100 µM | 38.7 µM | 84.2 µM | 22.6 µM | 48.7 µM | 17.7 µM | 37 µM | 24.4 µM | 62.7 µM | > 100 µM | > 100 µM |
| COc1cc(O)c2c(c1)C(=O)c1cc3c(c(O)c1C2=O)C(OC1OC(C)C(O)C(O)C1OC)C(OC)C(C)(O)C3=O (stereo unspecified) | 1.31 µM | 5.2 µM and 3.25 µM | 3.11 µM | 11.5 µM | 2 µM | 8.49 µM and 1.81 µM | 3.34 µM | 19.5 µM | 2.44 µM | 11.8 µM and 8.61 µM | 2.66 µM | 9.2 µM | 1.27 µM | 4.54 µM and 4.77 µM | 1.53 µM | 4.7 µM and 5.97 µM | 5.2 µM | 52 µM and 34.8 µM | 1.98 µM | 5.25 µM and 2.5 µM |
| O=C1c2ccccc2-c2c1c1c(O)cccc1n2-c1ccccc1 | > 100 µM | > 100 µM | > 100 µM | > 100 µM | – | 0.035 µM | > 100 µM | > 100 µM | > 100 µM | > 100 µM | > 100 µM | > 100 µM | > 100 µM | > 100 µM | > 100 µM | > 100 µM | > 100 µM | > 100 µM | > 100 µM | > 100 µM |
| C=C1C(=O)O[C@@H]2C1C[C@@H](O)C(=C)CC/C=C(\C)CCC[C@H](C)[C@H]2OC(C)=O (stereo partly specified) | 2.93 µM | > 100 µM | 11.9 µM | 25.3 µM | 1.09 µM | 3.76 µM | 10.3 µM | 27.7 µM | 4.17 µM | > 100 µM | 4.07 µM | 18.6 µM | 18.2 µM | 41.4 µM | 17.1 µM | 31.9 µM | 14.8 µM | 32.5 µM | 16 µM | 35.9 µM |
| O=C(NCc1ccco1)c1ccc(NC2=C(Cl)C(=O)N(Cc3ccccc3)C2=O)cc1 | 28.4 µM | 80.1 µM | 15.8 µM | 29.2 µM | 17.7 µM | 36 µM | 43.3 µM | > 100 µM | 35 µM | > 100 µM | 24 µM | 62.1 µM | 26.7 µM | > 100 µM | 20.8 µM | 55.1 µM | 53.2 µM | > 100 µM | 28.9 µM | 80.8 µM |
| CCOC(=O)C(C)(C)C(O)C(C)C (stereo unspecified) | – | > 100 µM | – | > 100 µM | – | > 100 µM | – | > 100 µM | – | > 100 µM | – | > 100 µM | – | > 100 µM | – | > 100 µM | – | > 100 µM | – | > 100 µM |
| CCN(CC)CCNc1cc(-c2cccc(OC(F)(F)F)c2)nc2ccc(N3CCCC3)cc12 | 1.45 µM and 1.69 µM | 2.91 µM and 3.24 µM | 1.85 µM and 2.36 µM and 3.59 µM | 4.1 µM and 5.44 µM and 12.8 µM | 1.17 µM and 1.34 µM and 1.51 µM | 2.84 µM and 3.09 µM and 4.68 µM | 1.59 µM and 1.87 µM and 2.78 µM | 3.52 µM and 4.04 µM and 13 µM | 1.7 µM and 1.6 µM and 1.76 µM | 3.47 µM and 3.33 µM and 3.73 µM | 1.68 µM and 1.65 µM and 1.5 µM | 3.27 µM and 3.31 µM and 3.13 µM | 1.62 µM and 1.7 µM | 3.27 µM and 3.47 µM | 1.63 µM and 1.73 µM and 1.92 µM | 3.23 µM and 3.36 µM and 3.79 µM | 1.69 µM and 1.88 µM and 3.01 µM | 3.63 µM and 3.66 µM and 9.59 µM | 1.81 µM and 1.76 µM | 3.51 µM and 3.32 µM and 3.6 µM |
| COc1ccc2c(c1OC)OCC(CN(C)C)C2=O (stereo unspecified) | – | 21.6 µM | – | 34.5 µM | – | 11.3 µM | – | > 87.4 µM | – | 40.1 µM | – | 34.6 µM | – | > 66.6 µM | – | > 100 µM | – | > 57.3 µM | – | 30.8 µM |
| Cc1cc(Oc2ccc3nc(COc4ccc(CC5SC(=O)NC5=O)cc4)n(C)c3c2)cc(C)c1N (stereo unspecified) | 32.1 µM | > 100 µM | 45.8 µM | > 100 µM | > 34.4 µM | > 87.5 µM | > 57.3 µM | > 100 µM | 45.2 µM | > 100 µM | 45.4 µM | > 100 µM | 26.6 µM | > 90.7 µM | 32.5 µM | > 100 µM | > 66.1 µM | > 100 µM | 30.8 µM | > 75.5 µM |
| CCCCN(CCCC)CCCn1c(=O)c2c3ccccc3n(C)c2n2nnc(-c3ccccc3)c12 | 5.01 µM | 62.9 µM | 47.6 µM | > 100 µM | 18.5 µM | 44.7 µM | 39.9 µM | > 100 µM | 7.72 µM | 36.3 µM | 36.6 µM | > 100 µM | 41.2 µM | > 100 µM | 31.9 µM | > 100 µM | 30.3 µM | > 100 µM | 28.7 µM | 82.5 µM |
| CCOC(=O)[C@@H](C)C[C@H](Cc1ccccc1)NC(=O)c1csc([C@@H](C[C@H](C(C)C)N(C)C(=O)[C@H](CC)NC(=O)[C@H]2CCCCN2C)OC(C)=O)n1 | < 0.00167 µM | 0.0211 µM | < 0.00167 µM | 0.253 µM | < 0.00167 µM | 0.236 µM | 0.00405 µM | > 15.5 µM | < 0.00167 µM | > 16.7 µM | 0.00323 µM | 0.308 µM | < 0.00167 µM | > 16.7 µM | < 0.00167 µM | > 4.03 µM | < 0.00167 µM | > 16.7 µM | > 16.7 µM | > 16.7 µM |
